Source: patent US20220127247A1, “N-(PYRIDIN-2-YL)PYRIDINE-SULFONAMIDE DERIVATIVES AND THEIR USE IN THE TREATMENT OF DISEASE” (NOVARTIS AG, priority 2019, published 2022)

Legend:
[1] = biological target: T1, delF508-CFTR (Homo sapiens, UniProt P13569, DEL508-508); experiment: delF508-CFTR functional activity in primary human bronchial epithelial cells (HBECs), Multi-Transepithelial Clamp Circuit (MTECC-24) assay; format: cell-based; details: for EC50: primary human delF508-CFTR bronchial epithelial cells, 24 h with compound, equivalent short circuit current (Ieq), forskolin plus potentiator, mean of at least two replicates, read-out: MTECC24-CFHBEC EC50; for MTECC24-CFHBEC Amax %: test compound added 24 h before assay, with potentiator (S)-3-amino-6-methoxy-N-(3,3,3-trifluoro-2-hydroxy-2-methylpropyl)-5-(trifluoromethyl)picolinamide, relative to 2 μM 3-(6-(1-(2,2-difluorobenzo[d][1,3]dioxol-5-yl)cyclopropane-1-carboxamido)-3-methylpyridin-2-yl)benzoic acid + 0.5 μM N-(2,4-di-tert-butyl-5-hydroxyphenyl)-4-oxo-1,4-dihydroquinoline-3-carboxamide
T1 construct: expressed in transfected cells
T1 sequence (P13569 with tags, fused parts or gaps DEL508-508): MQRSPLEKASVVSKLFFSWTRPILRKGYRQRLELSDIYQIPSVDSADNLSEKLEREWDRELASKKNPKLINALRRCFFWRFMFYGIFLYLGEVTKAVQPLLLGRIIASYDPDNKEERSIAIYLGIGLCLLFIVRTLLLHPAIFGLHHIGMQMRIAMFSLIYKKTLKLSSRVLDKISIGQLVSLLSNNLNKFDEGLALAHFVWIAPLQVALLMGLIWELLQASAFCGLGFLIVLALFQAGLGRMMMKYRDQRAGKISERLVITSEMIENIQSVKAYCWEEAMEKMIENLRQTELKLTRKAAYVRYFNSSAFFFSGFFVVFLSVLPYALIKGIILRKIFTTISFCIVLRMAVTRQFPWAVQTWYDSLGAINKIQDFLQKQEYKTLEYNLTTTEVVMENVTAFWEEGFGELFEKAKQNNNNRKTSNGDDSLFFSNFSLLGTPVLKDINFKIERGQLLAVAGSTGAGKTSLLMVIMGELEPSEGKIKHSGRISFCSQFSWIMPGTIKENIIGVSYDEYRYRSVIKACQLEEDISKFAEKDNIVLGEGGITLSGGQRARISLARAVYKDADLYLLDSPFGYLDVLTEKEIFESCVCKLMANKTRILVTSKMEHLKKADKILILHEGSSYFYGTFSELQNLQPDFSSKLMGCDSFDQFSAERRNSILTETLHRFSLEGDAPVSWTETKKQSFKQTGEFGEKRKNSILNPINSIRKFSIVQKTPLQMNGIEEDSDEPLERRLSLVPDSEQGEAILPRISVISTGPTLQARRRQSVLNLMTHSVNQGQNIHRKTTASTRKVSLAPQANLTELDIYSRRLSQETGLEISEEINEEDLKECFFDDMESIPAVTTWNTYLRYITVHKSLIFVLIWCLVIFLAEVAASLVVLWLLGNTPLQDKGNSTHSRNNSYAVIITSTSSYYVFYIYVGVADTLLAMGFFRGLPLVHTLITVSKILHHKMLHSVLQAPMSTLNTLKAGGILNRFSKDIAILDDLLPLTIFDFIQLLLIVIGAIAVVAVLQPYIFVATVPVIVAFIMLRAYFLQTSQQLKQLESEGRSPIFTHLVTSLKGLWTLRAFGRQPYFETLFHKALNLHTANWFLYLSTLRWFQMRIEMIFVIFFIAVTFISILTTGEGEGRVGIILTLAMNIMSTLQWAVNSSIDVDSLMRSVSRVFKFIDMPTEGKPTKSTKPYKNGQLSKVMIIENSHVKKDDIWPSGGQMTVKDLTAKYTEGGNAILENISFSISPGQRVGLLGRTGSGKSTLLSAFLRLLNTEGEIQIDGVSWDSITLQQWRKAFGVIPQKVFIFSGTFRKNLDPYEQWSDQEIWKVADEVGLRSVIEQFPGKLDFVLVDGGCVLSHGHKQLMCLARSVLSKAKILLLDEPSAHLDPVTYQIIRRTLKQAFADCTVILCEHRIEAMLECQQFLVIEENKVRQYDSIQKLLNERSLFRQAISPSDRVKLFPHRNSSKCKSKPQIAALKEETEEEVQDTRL
Description: Measurement of delF508-CFTR Functional Activity in Primary Human Bronchial Epithelial Cells (HBECs) Using Multi-Transepithelial Clamp Circuit (MTECC-24) Assay
This assay measures the functional activity of the CFTR channel (Chloride ion transport) in patient derived primary human bronchial epithelial cells with forskolin activation and in the presence of the CFTR corrector/potentiator combination.
Primary human delF508-CFTR bronchial epithelial cells were and cultured according to previously established methods (Neuberger, T. et, al., Methods in Molecular Biology, 2011, 741, pp 39-54). Briefly, before thawing the HBEC cells, T25 flasks were coated with 2 mL of 3T3 conditioned media (MTI-GlobalStem, Cat #GSM9100) for at least 12 hours in 37° C. CO2 incubator. 1.7×10^5 cells were seeded into one T25 flask with 5 mL of HBE growth media (BEBM with supplements (Lonza, Cat #CC-3170) with 10 nM of retinoic acid (Sigma, Cat #R-2625) and 1% of PSA (Hyclone, Cat #SV30079.01). Media was changed every day till the cells were 100% confluent. Cells were seeded into T75 flasks (pre-coated with 5 mL of 3T3 conditioned media for more than 12 hrs) at 4.95×10^5 cells/T75 flask in 15 mL of HBE growth media. Flasks were fed everyday with fresh HBE growth media until the cells were confluent. 24-well transwell plates (Corning, Cat #3378) were coated with 3T3 conditioned media (70 μL on top of the filter, 350 μL to the bottom of the well) overnight in the 37° C. CO2 incubator. Cells were seeded in the pre-coated 24-well transwell plates at 1.7×10^5 cell/well with 700 μL of growth media at the bottom of the well and 200 μL of growth media at the top of the filter. After 24 hrs, cells were switched into HBE differentiation media ((DMEM/F12 (Gibco, Cat #11330-032) supplement with 2% Ultroser G (Pall, Cat #15950-017), 2% of Fetal Clone II (Hyclone, Cat #SH30066.03), 0.25% Bovine Brain Extract (Lonza, Cat #CC-4098), 1% of PSA, 2.5 μg/mL of Insulin (Sigma, Cat #19278), 20 nM of Hydrocortisone (Sigma, Cat #H0888), 500 nM of Triiodothyronine (Sigma, Cat #T6397), 2.5 μg/mL of Transferrin (Sigma, Cat #T8158), 250 nM of Ethanolamine (Sigma, Cat #E0135), 1.5 μM of Epinephrine (Sigma, Cat #E4250), 250 nM of Phosphoethanolamine (Sigma, Cat #P0503), 10 nM of retinoic acid)) with 200 μL on top of the filter (apical side) and 700 μL at the bottom of the well (basolateral side). Cells were fed every other day with the differentiation media. After 4 days, cells were exposed to air/liquid interface. Then cells were fed every other day for 4 weeks before fully differentiated.
Cells were washed with 3 mM DTT in PBS at 70 ul/well for 30 min at 37° C. 6 days before the assay. 3 days before the assay, cells were washed again with PBS at 70 ul/well for 30 min at 37° C. Then cells were treated with compound for 24 hrs before the assay.
Following 24 hr treatment with compound, cells were transferred into plates containing 750 ul of assay media on basolateral side and 250 ul on apical side (Assay medium: F-12 Coon's modified, 20 mM HEPES pH7.4 with TRIS Base, No FCS or bicarbonate). The plates wee then transferred to the heated plate compartments (basolateral buffer temperature ˜36.5° C. on the heating block) of the TECC24 system for 45 mins prior to measurements.
Modulators were added sequentially as follows while the TECC24 instrument recorded the equivalent short circuit current (Ieq):
Prior to dilution into assay medium the stocks were as follows: • Benzamil stock: 10 mM in DMSO • Forskolin Stock: 50 mM in DMSO • N-(2,4-di-tert-butyl-5-hydroxyphenyl)-1,4-dihydro-4-oxoquinoline-3-carboxamide: 50 mM in DMSO • (S)-3-amino-6-methoxy-N-(3,3,3-trifluoro-2-hydroxy-2-methylpropyl)-5-(trifluoromethyl)picolinamide: 50 mM stock 100% DMSO • Bumetanide stock: 20 mM in EtOH
The data was normalized using the median signal from wells treated with 0.1% DMSO as a baseline. Curve fitting and EC50 calculations were performed using the following equation: […]

[2] = biological target: T1, delF508-CFTR; experiment: Measurement of delF508-CFTR-HRP surface expression in CFBE41o- cells; format: cell-based; details: for EC50: HRP-tagged delF508-CFTR in CFBE41o- cells, 24 h with compound, luminescence, 10-point curve, top 10 μM; for Emax: efficacy relative to reference compound 3-(6-(1-(2,2-difluorobenzo[d][1,3]dioxol-5-yl)cyclopropane-1-carboxamido)-3-methylpyridin-2-yl)benzoic acid, CFBE41o- cells, 24 h, read-out: DelF508-CFTR-HRP Amax %
How it was run: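 CFBE41o- cells stably expressing delF508-CFTR with HRP in the fourth extracellular loop, induced with 500 ng/mL doxycycline for 48 h, then treated with compound (top 10 μM, 10-point 3-fold) for 24 h at 37° C. Surface HRP detected by luminescence with cell-impermeant substrate; EC50 from logistic fit of triplicates, normalized to lowest concentration.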

| SMILES | EC50 [1] [µM] | MTECC24-CFHBEC Amax % [1] [%] | EC50 [2] [µM] | Emax [2] [%] |
| --- | --- | --- | --- | --- |
| Cc1ccccc1-c1nc(NS(=O)(=O)c2cccc(N(C)CCCCC(=O)O)n2)ccc1C(F)(F)F [Compound 66, 5-(methyl(6-(N-(6-(o-tolyl)-5-(trifluoromethyl)pyridin-2-yl)sulfamoyl)pyridin-2-yl)amino)pentanoic Acid] | 0.185 | 133 | 1.6 | – |
| CCCN(CCC(=O)O)c1cccc(S(=O)(=O)Nc2ccc(C(F)(F)F)c(-c3cc(F)ccc3C)n2)n1 [Compound 149, 3-((6-(N-(6-(5-fluoro-2-methylphenyl)-5-(trifluoromethyl)pyridin-2-yl)sulfamoyl)pyridin-2-yl)(propyl)amino)propanoic Acid] | 0.088 | 133 | 1.49 | – |
| Cc1ccc(F)cc1-c1nc(NS(=O)(=O)c2cccc(N(C)CCCC(=O)O)n2)ccc1C(F)(F)F [Compound 92, 4-((6-(N-(6-(5-fluoro-2-methylphenyl)-5-(trifluoromethyl)pyridin-2-yl)sulfamoyl)pyridin-2-yl)(methyl)amino)butanoic Acid] | 0.394 | 123 | 1.82 | – |
| CCCCN(CCCC(=O)O)c1cccc(S(=O)(=O)Nc2ccc(C(F)(F)F)c(-c3cc(F)ccc3C)n2)n1 [Compound 102, 4-(butyl(6-(N-(6-(5-fluoro-2-methylphenyl)-5-(trifluoromethyl)pyridin-2-yl)sulfamoyl)pyridin-2-yl)amino)butanoic Acid] | 0.131 | 298 | 1.26 | – |
| CCc1ccccc1-c1nc(NS(=O)(=O)c2cccc(N(CC)CCC(=O)O)n2)ccc1C(F)(F)F [Compound 72, 3-(ethyl(6-(N-(6-(2-ethylphenyl)-5-(trifluoromethyl)pyridin-2-yl)sulfamoyl)pyridin-2-yl)amino)propanoic Acid] | 0.116 | 118 | 1.88 | – |
| Cc1ccc(F)cc1-c1nc(NS(=O)(=O)c2cccc(N(C)CCCCC(=O)O)n2)ccc1C(F)(F)F [Compound 68, 5-((6-(N-(6-(5-fluoro-2-methylphenyl)-5-(trifluoromethyl)pyridin-2-yl)sulfamoyl)pyridin-2-yl)(methyl)amino)pentanoic Acid] | 0.423 | 116 | 1.35 | 996 |
| Cc1ccccc1-c1nc(NS(=O)(=O)c2cccc(N(C)CC3(C(=O)O)CCOCC3)n2)ccc1C(F)(F)F [Compound 133, 4-((methyl(6-(N-(6-(o-tolyl)-5-(trifluoromethyl)pyridin-2-yl)sulfamoyl)pyridin-2-yl)amino)methyl)tetrahydro-2H-pyran-4-carboxylic Acid] | 0.901 | 108 | 1.92 | 547 |

Stronger by EC50 [1], values ahead:

| EC50 [1] [µM] | MTECC24-CFHBEC Amax % [1] [%] | EC50 [2] [µM] | Emax [2] [%] | SMILES |
| --- | --- | --- | --- | --- |
| 0.073 | 142 | 1.43 | – | Cc1ccccc1-c1nc(NS(=O)(=O)c2cccc(N(CCCC(=O)O)CC3CC3)n2)ccc1C(F)(F)F [Compound 103, 4-((cyclopropylmethyl)(6-(N-(6-(o-tolyl)-5-(trifluoromethyl)pyridin-2-yl)sulfamoyl)pyridin-2-yl)amino)butanoic Acid] |
| 0.07 | 146 | 1.51 | – | CCN(CCCC(=O)O)c1cccc(S(=O)(=O)Nc2ccc(C(F)(F)F)c(-c3cc(F)ccc3C)n2)n1 [Compound 115, 4-(ethyl(6-(N-(6-(5-fluoro-2-methylphenyl)-5-(trifluoromethyl)pyridin-2-yl)sulfamoyl)pyridin-2-yl)amino)butanoic Acid] |
| 0.068 | 126 | 1.57 | – | CCN(CCC(=O)O)c1cccc(S(=O)(=O)Nc2ccc(C(F)(F)F)c(-c3ccccc3C(C)C)n2)n1 [Compound 70, 3-(ethyl(6-(N-(6-(2-isopropylphenyl)-5-(trifluoromethyl)pyridin-2-yl)sulfamoyl)pyridin-2-yl)amino)propanoic Acid] |
| 0.065 | 292 | 1.57 | – | Cc1ccc(F)cc1-c1nc(NS(=O)(=O)c2cccc(N(CCC(=O)O)C(C)C)n2)ccc1C(F)(F)F [Compound 135, 3-((6-(N-(6-(5-fluoro-2-methylphenyl)-5-(trifluoromethyl)pyridin-2-yl)sulfamoyl)pyridin-2-yl)(isopropyl)amino)propanoic Acid] |
| 0.061 | 253 | 1.38 | – | Cc1ccccc1-c1nc(NS(=O)(=O)c2cccc(N(CCC(=O)O)CC3CC3)n2)ccc1C(F)(F)F [Compound 86, 3-((cyclopropylmethyl)(6-(N-(6-(o-tolyl)-5-(trifluoromethyl)pyridin-2-yl)sulfamoyl)pyridin-2-yl)amino)propanoic Acid] |
| 0.024 | 148 | 1.68 | – | Cc1ccc(F)cc1-c1nc(NS(=O)(=O)c2cccc(N(CCCC(=O)O)C(C)C)n2)ccc1C(F)(F)F [Compound 95, 4-((6-(N-(6-(5-fluoro-2-methylphenyl)-5-(trifluoromethyl)pyridin-2-yl)sulfamoyl)pyridin-2-yl)(isopropyl)amino)butanoic Acid] |
| 0.021 | 247 | 0.72 | – | Cc1ccc(F)cc1-c1nc(NS(=O)(=O)c2cccc(N(CCCC(=O)O)CC(C)C)n2)ccc1C(F)(F)F [Compound 127, 4-((6-(N-(6-(5-fluoro-2-methylphenyl)-5-(trifluoromethyl)pyridin-2-yl)sulfamoyl)pyridin-2-yl)(isobutyl)amino)butanoic Acid] |
| 0.002 | 107 | 1.33 | – | Cc1ccc(F)cc1-c1nc(NS(=O)(=O)c2cccc(N3CCC[C@@](C)(CC(=O)O)C3)n2)ccc1C(F)(F)F (single isomer, unassigned) [Compound 64] |
| 0.002 | 202 | 0.72 | – | CCc1ccccc1-c1nc(NS(=O)(=O)c2cccc(N(CCCC(=O)O)C(C)C)n2)ccc1C(F)(F)F [Compound 96, 4-((6-(N-(6-(2-ethylphenyl)-5-(trifluoromethyl)pyridin-2-yl)sulfamoyl)pyridin-2-yl)(isopropyl)amino)butanoic Acid] |
